# Reference: patent US8084645B2, “4-phenylamino-benzaldoxime derivatives and uses thereof as mitogen-activated protein kinase kinase (MEK) inhibitors” (Chugai Seiyaku Kabushiki Kaisha, priority 2003, dated 2011)
# Where two headings read alike, the source gives them in different places.
# Experiments:
# [1] = Determination of water solubility (equilibrium stirring method); format: physicochemical; conditions: for solubility at 2 h: aqueous buffer, thermodynamic from solid, read-out: Water solubility (LySA PH 6.5)
# Experimental: The vessels were sealed, and the contents were sonicated at room temperature (20° C.) for ten minutes, and then stirred with a stirrer for two hours. After reaching solution equilibrium, the solution was separated with a membrane filter, and the solute concentration was determined using HPLC.
# [2] = Determination of stability against mouse liver microsomes; format: in vitro ADME; conditions: mouse liver microsomes 1 mg protein/mL, 2 mM NADPH, pH 7.4, 37 C; read-out: Stability against mouse liver microsome NADPH+ T1/2
# Experimental: (§1) The enzyme reaction was quenched with three volumes of acetonitrile, and the reaction mixture was centrifuged at 1,500 rpm for ten minutes to provide a supernatant as a sample to be measured. Stability against mouse liver microsomes was measured using HPLC/MS to determine the compounds in the sample.
# MEK = MEK (Homo sapiens, UniProt Q02750); assay: Determination of MEK inhibitory activities (Raf-1 kinase cascade assay, MBP phosphorylation, 33P-ATP)
# Excerpt: The radioisotope used was [γ^33P]-ATP (Amersham Biosciences, K.K.).
# [3] = system: Human colon cancer cell line HT-29; assay: Determination of the activity of inhibiting cell proliferation (Cell Counting Kit-8); format: cell-based; conditions: HT-29, 96 h, HT29, 2,000 cells/well, incubated four days, read-out: Cell proliferation inhibitory activity (HT29) IC50
# Experimental: Human colon cancer cell line HT-29, obtained from American Type Culture Collection (VA, USA), and human non-small cell lung cancer cell line QG56, obtained from Immuno-Biological Laboratories Co., Ltd., were plated at 2,000 cells/well in a 96-well culture plate, and incubated for four days after addition of a MEK inhibitor of a given concentration.
# [4] = Determination of stability against human liver microsomes; format: in vitro ADME; conditions: human liver microsomes 1 mg protein/mL, 2 mM NADPH, pH 7.4, 37 C; read-out: Stability against human liver microsome NADPH+ T1/2
# Experimental: as §1, with “human” for “mouse”
# [5] = 50 mM phosphate buffer pH 6.5, room temperature (20 C)
# Sequence of MEK (Q02750 whole entry): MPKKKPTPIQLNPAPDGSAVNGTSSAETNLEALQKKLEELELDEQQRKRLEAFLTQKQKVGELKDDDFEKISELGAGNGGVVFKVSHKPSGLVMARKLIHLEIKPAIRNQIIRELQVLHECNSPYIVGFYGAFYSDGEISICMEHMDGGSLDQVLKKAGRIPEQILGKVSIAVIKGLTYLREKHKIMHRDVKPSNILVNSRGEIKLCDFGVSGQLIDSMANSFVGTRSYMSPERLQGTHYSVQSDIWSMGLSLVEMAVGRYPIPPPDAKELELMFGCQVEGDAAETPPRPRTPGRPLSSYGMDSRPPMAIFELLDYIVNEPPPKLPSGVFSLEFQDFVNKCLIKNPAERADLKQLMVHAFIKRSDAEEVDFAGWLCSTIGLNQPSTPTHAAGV
Compound,"solubility at 2 h ([1]; phosphate buffer, 20 °C, at pH 6.67) [µM]",half-life [2] [h],IC50 (MEK) [nM],IC50 [3] [nM],half-life [4] [h],"solubility at 2 h ([1]; phosphate buffer, 20 °C, at pH 6.06) [µM]","Water solubility (LySA PH 6.5) [1, 5] [µM]","solubility at 2 h [1, 5] [µM]"
"O=C(NOCCO)c1cc(/C=N/OCC(O)CO)c(F)c(F)c1Nc1ccc(I)cc1F (racemic) [Compound 7, (E)-dl-5-[(2,3-Dihydroxy-propoxyimino)-methyl]-3,4-difluoro-2-(2-fluoro-4-iodo-phenylamino)-N-(2-hydroxy-ethoxy)-benzamide]",162,> 6,33,37,1.51,,,
"C#Cc1ccc(Nc2c(C(=O)NOCCO)cc(/C=N/OCC(O)CO)c(F)c2F)c(F)c1 (racemic) [Compound 8, (E)-dl-5-[(2,3-Dihydroxy-propoxyimino)-methyl]-2-(4-ethynyl-2-fluoro-phenylamino)-3,4-difluoro-N-(2-hydroxy-ethoxy)-benzamide]",,> 6,150,185,1.24,1470,,
"CC(C)(O)CO/N=C/c1cc(C(=O)NOCCO)c(Nc2ccc(I)cc2F)c(F)c1F [Compound 12, (E)-3,4-difluoro-2-(2-fluoro-4-iodophenylamino)-N-(2-hydroxy-ethoxy)-5-[(2-hydroxy-2-methyl-propoxyimino)-methyl]-benzamide]",,> 6,37,< 19.5,,,15,
"CNC(=O)CCO/N=C/c1cc(C(=O)NOCCO)c(Nc2ccc(I)cc2F)c(F)c1F [Compound 14, (E)-3,4-difluoro-2-(2-fluoro-4-iodo-phenylamino)-N-(2-hydroxy-ethoxy)-5-[(2-methylcarbamoyl-ethoxyimino)-methyl]-benzamide]",,0.767,9.7,38,,,,14
"O=C(NOCCO)c1cc(/C=N/OCCN2CCCCC2)c(F)c(F)c1Nc1ccc(I)cc1F [Compound 17, (E)-3,4-difluoro-2-(2-fluoro-4-iodo-phenylamino)-N-(2-hydroxy-ethoxy)-5-[(2-piperidin-1-yl-ethoxyimino)-methyl]-benzamide]",,> 6,287,920,,,,462
"CNCCO/N=C/c1cc(C(=O)NOCCO)c(Nc2ccc(I)cc2F)c(F)c1F [Compound 23, (E)-3,4-difluoro-2-(2-fluoro-4-iodo-phenylamino)-N-(2-hydroxy-ethoxy)-5-[(2-methylamino-ethoxyimino)-methyl]-benzamide]",,,85,88,,,,
"O=C(NOCCO)c1cc(/C=N/OCc2cnc[nH]2)c(F)c(F)c1Nc1ccc(I)cc1F [Compound 29, (E)-3,4-difluoro-2-(2-fluoro-4-iodo-phenylamino)-N-(2-hydroxy-ethoxy)-5-[(3H-imidazol-4-ylmethoxyimino)-methyl]-benzamide]",,,576,165,,,,
"O=C(NOCCO)c1cc(/C=N/OCc2ccncc2)c(F)c(F)c1Nc1ccc(I)cc1F [Compound 30, (E)-3,4-difluoro-2-(2-fluoro-4-iodo-phenylamino)-N-(2-hydroxy-ethoxy)-5-[(pyridin-4-ylmethoxyimino)-methyl]-benzamide]",,> 6,88,790,,,,< 31.3
"CO/N=C/c1cc(C(=O)NOCCO)c(Nc2ccc(I)cc2F)c(F)c1F [Compound 31, (E)-3,4-difluoro-2-(2-fluoro-4-iodo-phenylamino)-N-(2-hydroxy-ethoxy)-5-[methoxyimino-methyl]-benzamide]",,,335,463,,,,
"CC(C)O/N=C/c1cc(C(=O)NOCCO)c(Nc2ccc(I)cc2F)c(F)c1F [Compound 32, (E)-3,4-difluoro-2-(2-fluoro-4-iodo-phenylamino)-N-(2-hydroxy-ethoxy)-5-[isopropoxyimino-methyl]-benzamide]",,,1250,84,,,,
"CC(C)(O)CCO/N=C/c1cc(C(=O)NOCCO)c(Nc2ccc(I)cc2F)c(F)c1F [Compound 33, (E)-3,4-difluoro-2-(2-fluoro-4-iodo-phenylamino)-N-(2-hydroxy-ethoxy)-5-[(3-hydroxy-3-methyl-butoxyimino)-methyl]-benzamide]",,,37.5,275,,,,< 7.8
"CC(C)(CO)CO/N=C/c1cc(C(=O)NOCCO)c(Nc2ccc(I)cc2F)c(F)c1F [Compound 34, (E)-3,4-difluoro-2-(2-fluoro-4-iodo-phenylamino)-5-[(E)-(3-hydroxy-2,2-dimethyl-propoxyimino)-methyl]-N-(2-hydroxy-ethoxy)-benzamide]",,,69,143,,,,< 7.8
"O=C(NOCCO)c1cc(/C=N/OCC2(CO)CC2)c(F)c(F)c1Nc1ccc(I)cc1F [Compound 35, (E)-3,4-difluoro-2-(2-fluoro-4-iodo-phenylamino)-N-(2-hydroxy-ethoxy)-5-[(1-hydroxymethyl-cyclopropylmethoxyimino)-methyl]-benzamide]",,,30.4,203,,,,< 7.8
"O=C(NOCCO)c1cc(/C=N/OCCCCO)c(F)c(F)c1Nc1ccc(I)cc1F [Compound 36, (E)-3,4-difluoro-2-(2-fluoro-4-iodo-phenylamino)-5-[(4-hydroxy-butoxyimino)-methyl]-N-(2-hydroxy-ethoxy)-benzamide]",,,45,365,,,,< 7.8
"COC(C)(C)CCO/N=C/c1cc(C(=O)NOCCO)c(Nc2ccc(I)cc2F)c(F)c1F [Compound 37, (E)-3,4-difluoro-2-(2-fluoro-4-iodo-phenylamino)-N-(2-hydroxy-ethoxy)-5-[(3-methoxy-3-methyl-butoxyimino)-methyl]-benzamide]",,,287,600,,,,
"COCCO/N=C/c1cc(C(=O)NOCCO)c(Nc2ccc(I)cc2F)c(F)c1F [Compound 38, (E)-3,4-difluoro-2-(2-fluoro-4-iodo-phenylamino)-N-(2-hydroxy-ethoxy)-5-[(2-methoxy-ethoxyimino)-methyl]-benzamide]",,,395,476,,,,
"CSCCO/N=C/c1cc(C(=O)NOCCO)c(Nc2ccc(I)cc2F)c(F)c1F [Compound 39, (E)-3,4-difluoro-2-(2-fluoro-4-iodo-phenylamino)-N-(2-hydroxy-ethoxy)-5-[(2-methylsulfanyl-ethoxyimino)-methyl]-benzamide]",,,232,114,,,,< 7.8
"CS(=O)(=O)CCO/N=C/c1cc(C(=O)NOCCO)c(Nc2ccc(I)cc2F)c(F)c1F [Compound 40, (E)-3,4-difluoro-2-(2-fluoro-4-iodo-phenylamino)-N-(2-hydroxy-ethoxy)-5-[(2-methanesulfonyl-ethoxyimino)-methyl]-benzamide]",,> 6,67,27,1.49,,,
"O=C(NOCCO)c1cc(/C=N/OCCOCCO)c(F)c(F)c1Nc1ccc(I)cc1F [Compound 46, (E)-3,4-difluoro-2-(2-fluoro-4-iodo-phenylamino)-N-(2-hydroxy-ethoxy)-5-{[2-(2-hydroxy-ethoxy)-ethoxyimino]-methyl}-benzamide]",,,107,103,,,,
"CC(C)(O)CO/N=C\c1cc(C(=O)NOCCO)c(Nc2ccc(I)cc2F)c(F)c1F [Compound 51, (Z)-3,4-Difluoro-2-(2-fluoro-4-iodo-phenylamino)-N-(2-hydroxy-ethoxy)-5-[(2-hydroxy-2-methyl-propoxyimino)-methyl]-benzamide]",,,21,6,,,,< 7.8
"CS(=O)(=O)CCO/N=C\c1cc(C(=O)NOCCO)c(Nc2ccc(I)cc2F)c(F)c1F [Compound 53, (Z)-3,4-Difluoro-2-(2-fluoro-4-iodo-phenylamino)-N-(2-hydroxy-ethoxy)-5-[(2-methanesulfonyl-ethoxyimino)-methyl]-benzamide]",,,17,1.9,,,,< 7.8
"O=C(NOCCO)c1cc(/C=N\OCCN2CCNC2=O)c(F)c(F)c1Nc1ccc(I)cc1F [Compound 59, (Z)-3,4-difluoro-2-(2-fluoro-4-iodo-phenylamino)-N-(2-hydroxy-ethoxy)-5-{[2-(2-oxo-imidazolidin-1-yl)-ethoxyimino]-methyl}-benzamide]",,,50,17,,,,69
"O=C(NOCCO)c1cc(/C=N\OCCN2CCCC2=O)c(F)c(F)c1Nc1ccc(I)cc1F [Compound 60, (Z)-3,4-difluoro-2-(2-fluoro-4-iodo-phenylamino)-N-(2-hydroxy-ethoxy)-5-{[2-(2-oxo-pyrrolidin-1-yl)-ethoxyimino]-methyl}-benzamide]",,,78,20,,,,
